Laboratory results reported in US20100152267A1, “NOVEL RIFAMYCIN 3,4-(3-SUBSTITUTED AMINOMETHYL) FUSED PYRROLO DERIVATIVES” (priority 2008, published 2010).
Converted amounts (≈) assume the structure as drawn.

Columns and labels:
Format in all cases: cell-based
[1] = tested on: Methicillin-resistant Staphylococcus aureus OC 3726 COL; assay: MIC by microdilution broth method (NCCLS), B Strain; settings: read-out: MIC B Strain
Procedure: (§1) Minimum inhibitory concentration (MIC) is an indicator of in vitro antibacterial activity. […] The in vitro antimicrobial activity of representative compounds of the present invention was determined by the microdilution broth method following the test method from the National Committee for Clinical Laboratory Standards (NCCLS). This method is described in the NCCLS Document M7-A4, Vol. 17, No. 2, “Methods for Dilution Antimicrobial Susceptibility Test for Bacteria that Grow Aerobically—Fourth Edition”, which is incorporated herein by reference.
(§2) In this method two-fold serial dilutions of test compound in cation adjusted Mueller-Hinton broth were added to wells in microdilution trays. The test organisms were prepared by adjusting the turbidity of actively growing broth cultures so that the final concentration of test organism after it is added to the wells was approximately 5×10^4 CFU/well. Following inoculation of the microdilution trays, the trays were incubated at 35° C. for 16-20 hours and then read. The amount of growth in the wells containing the test compound was compared with the amount of growth in the growth-control wells (no test compound) used in each tray.
(§3) Representative compounds of the present invention were tested against a variety of pathogenic bacteria with results as listed in Table 2, below.

[2] = tested on: Enterococcus faecium OC 3312 vancomycin resistant; assay: MIC by microdilution broth method (NCCLS), A Strain; settings: read-out: MIC A Strain
Procedure: as §1, §2, §3

[3] = tested on: Staphylococcus aureus OC4172; assay: MIC by microdilution broth method (NCCLS), C Strain; settings: cation adjusted Mueller-Hinton broth, 35° C., 16-20 hours
Procedure: as §1, §2, §3

[4] = tested on: Methicillin-resistant Staphylococcus aureus OC 2878; assay: MIC by microdilution broth method (NCCLS), D Strain; settings: read-out: MIC D Strain
Procedure: as §1, §2, §3

CO[C@H]1/C=C/O[C@@]2(C)Oc3c(C)c(O)c4c(O)c(c5c(CN)c[nH]c5c4c3C2=O)NC(=O)/C(C)=C\C=C\[C@H](C)[C@H](O)[C@@H](C)[C@@H](O)[C@@H](C)[C@H](OC(C)=O)[C@@H]1C [Compound 1]
MIC [1]: 0.25 µg/mL (≈ 0.333 µM)
MIC [2]: < 1 µg/mL
MIC [3]: 0.12 µg/mL (≈ 0.16 µM)
MIC [4]: 0.25 µg/mL (≈ 0.333 µM)

CO[C@H]1/C=C/O[C@@]2(C)Oc3c(C)c(O)c4c(O)c(c5c(CN6CCCCC6)c[nH]c5c4c3C2=O)NC(=O)/C(C)=C\C=C\[C@H](C)[C@H](O)[C@@H](C)[C@@H](O)[C@@H](C)[C@H](OC(C)=O)[C@@H]1C [Compound 2]
MIC [1]: 4 µg/mL (≈ 4.89 µM)
MIC [2]: 8 µg/mL (≈ 9.78 µM)
MIC [3]: 4 µg/mL (≈ 4.89 µM)
MIC [4]: 4 µg/mL (≈ 4.89 µM)

CO[C@H]1/C=C/O[C@@]2(C)Oc3c(C)c(O)c4c(O)c(c5c(CN(C)Cc6ccc(N7CCN(C)CC7)cc6)c[nH]c5c4c3C2=O)NC(=O)/C(C)=C\C=C\[C@H](C)[C@H](O)[C@@H](C)[C@@H](O)[C@@H](C)[C@H](OC(C)=O)[C@@H]1C [Compound 3]
MIC [1]: 1 µg/mL (≈ 1.05 µM)
MIC [2]: 2 µg/mL (≈ 2.1 µM)
MIC [3]: 1 µg/mL (≈ 1.05 µM)
MIC [4]: 1 µg/mL (≈ 1.05 µM)

CO[C@H]1/C=C/O[C@@]2(C)Oc3c(C)c(O)c4c(O)c(c5c(CNCc6ccc(N7CCN(C)CC7)cc6)c[nH]c5c4c3C2=O)NC(=O)/C(C)=C\C=C\[C@H](C)[C@H](O)[C@@H](C)[C@@H](O)[C@@H](C)[C@H](OC(C)=O)[C@@H]1C [Compound 4]
MIC [1]: 0.5 µg/mL (≈ 0.533 µM)
MIC [2]: 1 µg/mL (≈ 1.07 µM)
MIC [3]: 1 µg/mL (≈ 1.07 µM)
MIC [4]: 0.5 µg/mL (≈ 0.533 µM)

CO[C@H]1/C=C/O[C@@]2(C)Oc3c(C)c(O)c4c(O)c(c5c(CN(Cc6ccc(N7CCN(C)CC7)cc6)Cc6ccc(N7CCN(C)CC7)cc6)c[nH]c5c4c3C2=O)NC(=O)/C(C)=C\C=C\[C@H](C)[C@H](O)[C@@H](C)[C@@H](O)[C@@H](C)[C@H](OC(C)=O)[C@@H]1C [Compound 5]
MIC [1]: 0.25 µg/mL (≈ 0.222 µM)
MIC [2]: 1 µg/mL (≈ 0.888 µM)
MIC [3]: 0.25 µg/mL (≈ 0.222 µM)
MIC [4]: 0.25 µg/mL (≈ 0.222 µM)
